≈ marks a conversion by molar mass, not a printed value.
Legend:
Type in all cases: functional
[1] = test system: Candida tropicalis; assay: Antifungal activity against Candida tropicalis Berkout KCCM 50662 after 1 day by twofold broth dilution method; details: Berkout KCCM 50662, 24 h
[2] = test system: Aspergillus niger; assay: Antifungal activity against Aspergillus niger KCTC 1231 after 2 days by twofold broth dilution method; details: KCTC 1231, 48 h
[3] = test system: Aspergillus flavus; assay: Antifungal activity against Aspergillus flavus KCCM 11899 after 2 days by twofold broth dilution method; details: KCCM 11899, 48 h
[4] = test system: Cryptococcus neoformans; assay: Antifungal activity against Cryptococcus neoformans KCCM 50564 after 1 day by twofold broth dilution method; details: KCCM 50564, 24 h
[5] = test system: Candida albicans; assay: Antifungal activity against Candida albicans Berkout KCCM 50235 after 1 day by twofold broth dilution method; details: Berkout KCCM 50235, 24 h
[6] = test system: Pichia kudriavzevii; assay: Antifungal activity against Candida krusei Berkout KCCM 11655 after 1 day by twofold broth dilution method; details: Berkout KCCM 11655, 24 h

Row | SMILES | MIC [1] | MIC [2] | MIC [3] | MIC [4] | MIC [5] | MIC [6]
1 | CCOC(=O)c1c2c(n3cc(F)ccc13)C(=O)c1cc(C(=O)OC)sc1C2=O | 50 µg/mL (≈ 125 µM) | 50 µg/mL (≈ 125 µM) | 12.5 µg/mL (≈ 31.1 µM) | 12.5 µg/mL (≈ 31.1 µM) | 6.3 µg/mL (≈ 15.7 µM) | 12.5 µg/mL (≈ 31.1 µM)
2 | COC(=O)c1cc2c(s1)C(=O)C(Cl)=C([n+]1cccc(Br)c1)C2=O.[Cl-] | 50 µg/mL | 12.5 µg/mL | 50 µg/mL | 50 µg/mL | 50 µg/mL | 25 µg/mL
3 | CCOC(=O)c1c2c(n3cc(C)ccc13)C(=O)c1cc(C(=O)OC)sc1C2=O | 12.5 µg/mL (≈ 31.5 µM) | 25 µg/mL (≈ 62.9 µM) | 6.3 µg/mL (≈ 15.9 µM) | 12.5 µg/mL (≈ 31.5 µM) | 25 µg/mL (≈ 62.9 µM) | 25 µg/mL (≈ 62.9 µM)
4 | CCOC(=O)c1c2c(n3ccc(C#N)cc13)C(=O)c1cc(C(=O)OC)sc1C2=O | 12.5 µg/mL (≈ 30.6 µM) | 3.2 µg/mL (≈ 7.84 µM) | 50 µg/mL (≈ 122 µM) | 25 µg/mL (≈ 61.2 µM) | 12.5 µg/mL (≈ 30.6 µM) | 50 µg/mL (≈ 122 µM)
5 | COC(=O)c1cc2c(s1)C(=O)C(Cl)=C([n+]1ccc(OC)cc1)C2=O.[Cl-] | 50 µg/mL | 100 µg/mL | 50 µg/mL | 50 µg/mL | 100 µg/mL | 50 µg/mL
6 | COC(=O)c1cc2c(s1)C(=O)c1c(C(=O)OC)c3ccccn3c1C2=O | 25 µg/mL (≈ 67.7 µM) | 25 µg/mL (≈ 67.7 µM) | 12.5 µg/mL (≈ 33.8 µM) | 12.5 µg/mL (≈ 33.8 µM) | 50 µg/mL (≈ 135 µM) | 50 µg/mL (≈ 135 µM)
7 | CCOC(=O)c1c2c(n3ccc(OC)cc13)C(=O)c1cc(C(=O)OC)sc1C2=O | 50 µg/mL (≈ 121 µM) | 100 µg/mL (≈ 242 µM) | 50 µg/mL (≈ 121 µM) | 50 µg/mL (≈ 121 µM) | 50 µg/mL (≈ 121 µM) | 100 µg/mL (≈ 242 µM)
8 | CCOC(=O)c1c2c(n3ccccc13)C(=O)c1cc(C(=O)OC)sc1C2=O | 12.5 µg/mL (≈ 32.6 µM) | 12.5 µg/mL (≈ 32.6 µM) | 50 µg/mL (≈ 130 µM) | 50 µg/mL (≈ 130 µM) | 50 µg/mL (≈ 130 µM) | 12.5 µg/mL (≈ 32.6 µM)
9 | COC(=O)c1cc2c(s1)C(=O)c1c(C(C)=O)c3cc(C#N)ccn3c1C2=O | 25 µg/mL (≈ 66.1 µM) | 12.5 µg/mL (≈ 33 µM) | 12.5 µg/mL (≈ 33 µM) | 6.3 µg/mL (≈ 16.7 µM) | 25 µg/mL (≈ 66.1 µM) | 25 µg/mL (≈ 66.1 µM)
10 | COC(=O)c1cc2c(s1)C(=O)c1c(C(C)=O)c3ccc(Br)cn3c1C2=O | 12.5 µg/mL (≈ 28.9 µM) | 6.3 µg/mL (≈ 14.6 µM) | 12.5 µg/mL (≈ 28.9 µM) | 1.6 µg/mL (≈ 3.7 µM) | 6.3 µg/mL (≈ 14.6 µM) | 6.3 µg/mL (≈ 14.6 µM)
11 | CCOC(=O)c1c2c(n3cc(Cl)ccc13)C(=O)c1cc(C(=O)OC)sc1C2=O | 6.3 µg/mL (≈ 15.1 µM) | 6.3 µg/mL (≈ 15.1 µM) | 25 µg/mL (≈ 59.8 µM) | 25 µg/mL (≈ 59.8 µM) | 6.3 µg/mL (≈ 15.1 µM) | 6.3 µg/mL (≈ 15.1 µM)
12 | CCOC(=O)c1c2c(n3cc(Br)ccc13)C(=O)c1cc(C(=O)OC)sc1C2=O | 1.6 µg/mL (≈ 3.46 µM) | 3.2 µg/mL (≈ 6.92 µM) | 1.6 µg/mL (≈ 3.46 µM) | 1.6 µg/mL (≈ 3.46 µM) | 3.2 µg/mL (≈ 6.92 µM) | 12.5 µg/mL (≈ 27 µM)
13 | Nc1nc(=O)[nH]cc1F [FLUCYTOSINE] | 6.3 µg/mL (≈ 48.8 µM) | 6.3 µg/mL (≈ 48.8 µM) | 25 µg/mL (≈ 194 µM) | 6.3 µg/mL (≈ 48.8 µM) | 3.2 µg/mL (≈ 24.8 µM) | 6.3 µg/mL (≈ 48.8 µM)
14 | CCc1ccc2c(C(C)=O)c3c(n2c1)C(=O)c1cc(C(=O)OC)sc1C3=O | 50 µg/mL (≈ 131 µM) | 12.5 µg/mL (≈ 32.8 µM) | 6.3 µg/mL (≈ 16.5 µM) | 6.3 µg/mL (≈ 16.5 µM) | 12.5 µg/mL (≈ 32.8 µM) | 50 µg/mL (≈ 131 µM)
15 | CCc1ccc[n+](C2=C(Cl)C(=O)c3sc(C(=O)OC)cc3C2=O)c1.[Cl-] | 25 µg/mL | 6.3 µg/mL | 12.5 µg/mL | 12.5 µg/mL | 50 µg/mL | 50 µg/mL
16 | COC(=O)c1cc2c(s1)C(=O)c1c(C(C)=O)c3cc(Cl)ccn3c1C2=O | 25 µg/mL (≈ 64.5 µM) | 6.3 µg/mL (≈ 16.2 µM) | 12.5 µg/mL (≈ 32.2 µM) | 12.5 µg/mL (≈ 32.2 µM) | 50 µg/mL (≈ 129 µM) | 50 µg/mL (≈ 129 µM)
17 | OC(Cn1cncn1)(Cn1cncn1)c1ccc(F)cc1F [FLUCONAZOLE] | 3.2 µg/mL (≈ 10.4 µM) | 6.3 µg/mL (≈ 20.6 µM) | 25 µg/mL (≈ 81.6 µM) | 6.3 µg/mL (≈ 20.6 µM) | 50 µg/mL (≈ 163 µM) | 25 µg/mL (≈ 81.6 µM)
18 | COC(=O)c1cc2c(s1)C(=O)C(Cl)=C([n+]1ccc(C#N)cc1)C2=O.[Cl-] | 50 µg/mL | 3.2 µg/mL | 6.3 µg/mL | 6.3 µg/mL | 25 µg/mL | 50 µg/mL
19 | COC(=O)c1cc2c(s1)C(=O)c1c(C(C)=O)c3ccc(C)cn3c1C2=O | 25 µg/mL (≈ 68 µM) | 6.3 µg/mL (≈ 17.1 µM) | 12.5 µg/mL (≈ 34 µM) | 12.5 µg/mL (≈ 34 µM) | 12.5 µg/mL (≈ 34 µM) | 50 µg/mL (≈ 136 µM)
20 | COC(=O)c1cc2c(s1)C(=O)C(Cl)=C([n+]1ccc(Cl)cc1)C2=O.[Cl-] | 25 µg/mL | 3.2 µg/mL | 12.5 µg/mL | 12.5 µg/mL | 12.5 µg/mL | 50 µg/mL
21 | COC(=O)c1cc2c(s1)C(=O)c1c(C(C)=O)c3ccc(F)cn3c1C2=O | 25 µg/mL (≈ 67.3 µM) | 50 µg/mL (≈ 135 µM) | 50 µg/mL (≈ 135 µM) | 50 µg/mL (≈ 135 µM) | 50 µg/mL (≈ 135 µM) | 25 µg/mL (≈ 67.3 µM)
22 | COC(=O)c1cc2c(s1)C(=O)C(Cl)=C([n+]1cccc(Cl)c1)C2=O.[Cl-] | 1.6 µg/mL | 3.2 µg/mL | 3.2 µg/mL | 50 µg/mL | 3.2 µg/mL | 3.2 µg/mL
23 | COC(=O)c1cc2c(s1)C(=O)c1c(C(C)=O)c3ccc(Cl)cn3c1C2=O | 3.2 µg/mL (≈ 8.25 µM) | 12.5 µg/mL (≈ 32.2 µM) | 25 µg/mL (≈ 64.5 µM) | 3.2 µg/mL (≈ 8.25 µM) | 12.5 µg/mL (≈ 32.2 µM) | 6.3 µg/mL (≈ 16.2 µM)
24 | COC(=O)c1cc2c(OC)ccc(OC)c2s1 | > 100 µg/mL | 100 µg/mL (≈ 396 µM) | 100 µg/mL (≈ 396 µM) | > 100 µg/mL | 100 µg/mL (≈ 396 µM) | 50 µg/mL (≈ 198 µM)

From ChEMBL document CHEMBL2069251, “Synthesis and antifungal activity of 1-thia-4b-aza-cyclopenta[b]fluorene-4,10-diones” (2012)
